Assay results reported in BindingDB's records for doi:10.1016/s0960-894x(01)00092-0 (Novartis Pharma, 2001).
pIC50: −log10 of the molar value.

Key:
[1] = Inhibitory concentration against Selectin E in a dynamic flow assay.
[2] = as above; remark: listed apart in the source

pIC50 [1] | pIC50 [2] | SMILES
5.00 | – | COC(=O)CCCCCCCCO[C@@H]1O[C@@H](CO)[C@@H](O[C@@H]2O[C@@H](CO)[C@H](O)[C@H](O[C@@H](CC3CCCCC3)C(=O)O)[C@@H]2O)[C@H](O[C@@H]2O[C@@H](C)[C@@H](O)[C@H](O)[C@@H]2O)[C@@H]1NC(=O)c1ccc(OC)c(OC)c1 [Sialyl Lewis X Analogue]
– | 4.52 | C[C@@H]1O[C@@H](O[C@@H]2[C@H](CO)OCC[C@H]2O[C@@H]2O[C@@H](CO)[C@H](O)[C@H](O[C@@H](CC3CCCCC3)C(=O)O)[C@@H]2O)[C@@H](O)[C@@H](O)[C@@H]1O [Sodium; (R)-3-cyclohexyl-2-{3,5-dihydroxy-2-hydroxymethyl-6-[2-hydroxymethyl-3-(3,4,5-trihydroxy-6-methyl-tetrahydro-pyran-2-yloxy)-tetrahydro-pyran-4-yloxy]-tetrahydro-pyran-4-yloxy}-propionate]
